Consider 9 molecules from patent publication US9340500B2, “Aromatic heterocyclic derivative having TRPV4-inhibiting activity” (SHIONOGI & CO., LTD., priority 2011, dated 2016).

Each structure is given as a SMILES string. pIC50, pKi: −log10 of the molar value. Bounds are passed on as bounds.

Series [1] concerns the target T1, human TRPV4 (Homo sapiens (Human), UniProt Q9HBA0). Description: Test Example 3: measurement of TRPV4 inhibitory activity (Fluo-3, FDSS 3000, 4α-PDD). Type of series: cell-based. As to conditions: hTRPV4/CHO cells, calculated from IC50 and 4α-PDD EC50. Summed up: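 Fluo-3-loaded CHO-K1 cells stably expressing TRPV4 in HEPES/probenecid Hanks buffer pH 7.4; compound added, then 4α-PDD, Ca2+ fluorescence (Ex 480/Em 540 nm) read 8 min. Max-Min normalized to 10 μM Ruthenium Red (100%) and vehicle; IC50 from 10-point 3-fold series converted to Ki using 4α-PDD EC50 and concentration.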

The nature of series [2]: Metabolism stability test. Type of series: in vitro ADME. As to conditions: human liver microsomes, 30 minutes. As for the experimental part: Using a commercially available pooled human hepatic microsomes, a test compound was reacted for a constant time, a remaining rate was calculated by comparing a reacted sample and an unreacted sample, thereby, a degree of metabolism in liver was assessed.
A reaction was performed (oxidative reaction) at 37° C. for 0 minute or 30 minutes in the presence of 1 mmol/L NADPH in 0.2 mL of a buffer (50 mmol/L Tris-HCl pH 7.4, 150 mmol/L potassium chloride, 10 mmol/L magnesium chloride) containing 0.5 mg protein/mL of human liver microsomes. After the reaction, 50 μL of the reaction mixture was added to 100 μL of a methanol/acetonitrile=1/1 (v/v), mixed and centrifuged at 3000 rpm for 15 minutes. The test compound in the supernatant was quantified by LC/MS/MS, and a remaining amount of the test compound after the reaction was calculated, letting a compound amount at 0 minute reaction time to be 100%. Hydrolysis reaction was performed in the absence of NADPH and glucuronidation reaction was in the presence of 5 mM UDP-glucuronic acid in place of NADPH, followed by similar operations.

A short description of the next series: Solubility test. The format is physicochemical. As to conditions: artificial intestinal juice (phosphate buffer) with 1% DMSO, fassgf or other biorelevant, kinetic from dmso stock, artificial intestinal juice pH 6.8, 16 hours at 25° C. The method, then:
The solubility of each compound is determined under 1% DMSO addition conditions. A 10 mmol/L solution of the compound is prepared with DMSO, and 6 μL of the compound solution is added to 594 μL of an artificial intestinal juice (water and 118 mL of 0.2 mol/L NaOH reagent are added to 250 mL of 0.2 mol/L potassium dihydrogen phosphate reagent to reach 1000 mL) with a pH of 6.8. The mixture is left standing for 16 hours at 25° C., and the mixture is vacuum-filtered. The filtrate is two-fold diluted with methanol/water=1/1, and the compound concentration in the filtrate is measured with HPLC or LC/MS/MS by the absolute calibration method.

For series [3], the target named is T1, human TRPV4. The series can be described thus: Test Example 1: measurement of TRPV4 inhibitory activity (Fluo 4-AM, FLIPR TETRA, 4α-PDD 1 μmol/L). Type of series: cell-based. As to conditions: hTRPV4/CHO cells; for pIC50: 4α-PDD 1 μmol/L. Put shortly: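 Calcium influx evoked by 4α-PDD (final 1 μmol/L) in hTRPV4/CHO-K1 cells loaded with Fluo-4 AM (final 3 μmol/L), pH 7.4 HEPES-Hanks with probenecid; compounds added 5 min earlier. Inhibition relative to 20 μM Ruthenium Red gave IC50 (logistic), converted to Ki via agonist EC50.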

Series [4] in a line: BA test (oral absorbability). The format is in vivo. As to conditions: plasma; Mouse, oral administration 1 mg/kg. As for the experimental part:
An experimental material and a method for examining oral absorbability
(1) Animals used rats or mice were used.
(2) Breeding condition: chow and sterilized tap water were allowed to be taken in freely.
(3) Setting of a dosage and grouping: a predetermined dosage was administered orally or intravenously. Groups were formed as shown below. (A dosage varied depending on each compound) Oral administration 1-30 mg/kg (n=2 to 3) Intravenous administration 0.5-10 mg/kg (n=2 to 3) (4) Preparation of administered liquid: In oral administration, a solution or suspension was administered. In intravenous administration, after solubilization, the administration was performed. (5) Method of Administration: In oral administration, compulsory administration to the stomach was conducted using an oral probe.
In intravenous administration, administration from the caudal vein was conducted using a syringe with an injection needle.
(6) Evaluation item: Blood was chronologically collected, and then the drug concentration in blood plasma was measured using a LC/MS/MS.
(7) Statistical analysis: With regard to a shift in plasma concentration, the plasma concentration-time area under the curve (AUC) was calculated using a nonlinear least-squares program WinNonlin®. Bioavailability (BA) was calculated from the AUCs of the oral administration group and the intravenous administration group, respectively. […]

Series [5] concerns the target human ether-a-go-go related gene (hERG) channel (Homo sapiens (Human), UniProt Q12809). The series can be described thus: hERG test (whole cell patch clamp, IKr). The format is cell-based. As to conditions: 1 μmol/L of test compound, HEK293 cells expressing hERG. The source says: For the purpose of assessing risk of an electrocardiogram QT interval prolongation, effects on delayed rectifier K^+ current (IKr), which plays an important role in the ventricular repolarization process, was studied using HEK293 cells expressing human ether-a-go-go related gene (hERG) channel.
After a cell was retained at a membrane potential of −80 mV by whole cell patch clamp method using an automated patch clamp system (PatchXpress 7000A, Axon Instruments Inc.), IKr induced by depolarization pulse stimulation at +40 mV for 2 seconds and, further, repolarization pulse stimulation at −50 mV for 2 seconds was recorded. […] From the recording IKr, an absolute value of the tail peak current was measured based on the current value at the resting membrane potential using an analysis software (DataXpress ver. 1, Molecular Devices Corporation). Further, the % inhibition relative to the tail peak current before application of the test substance was calculated, and compared with the vehicle-applied group (0.1% dimethyl sulfoxide solution) to assess influence of the test substance on IKr.
For orientation: The hERG channel carries a current that helps repolarise heart muscle cells.

Series [6] concerns the target T1, human TRPV4. Description: Test Example 2: measurement of TRPV4 inhibitory activity (Fluo 3-AM, FLIPR, 4α-PDD 600 nmol/L). Type of series: cell-based. As to conditions: hTRPV4/CHO cells.
Description: For each compound, TRPV4 inhibitory activity was measured using cells.
(1) The TRPV4 inhibitory activity was measured using CHO-K1 cells stably expressing human TRPV4 (hTRPV4/CHO cells).
(2) In the day before the experimental day, frozen cell were thawed and washed with the culture medium (MEM-α, 10% FBS, 4 mmol/L L-Glutamine, 50 unit Penicillin, 50 μg/mL Streptomycin). Then cells were suspended in the culture medium.
(3) The 384-well plates which hTRPV4/CHO cells were seeded at densities of 4000 cells/well in the culture medium and cultured in a CO2 incubator in the presence of 5% CO2 at 37° C. for overnight was used as assay plates. […]
(7) Diluted compound solution was dispensed to each well in the compound plate, and mixed with built-in Pipette and Mixer of the Fluorescence analysis system FLIPR 384 (Molecular devices). […]
(9) The fluorescent intensity was measured with FLIPR TETRA system for 7 min from the point of time addition the compound solution, at Ex 488 nm, Em 510-570 nm wavelength.
TRPV4 inhibitory activity (IC50 value) of a compound was evaluated according to the following procedure.
(10) In the presence of the compound, the difference between maximal and minimal of fluorescent intensity value for 3 min from just before addition of 4α-PDD solution was calculated, and it was referred as Max-Min value. […]
[7] abbreviates: compound concentration 2 μmol/L.
The mark [8] stands for this setting: compound concentration 0.5 μmol/L.

T1 sequence (Q9HBA0 whole entry): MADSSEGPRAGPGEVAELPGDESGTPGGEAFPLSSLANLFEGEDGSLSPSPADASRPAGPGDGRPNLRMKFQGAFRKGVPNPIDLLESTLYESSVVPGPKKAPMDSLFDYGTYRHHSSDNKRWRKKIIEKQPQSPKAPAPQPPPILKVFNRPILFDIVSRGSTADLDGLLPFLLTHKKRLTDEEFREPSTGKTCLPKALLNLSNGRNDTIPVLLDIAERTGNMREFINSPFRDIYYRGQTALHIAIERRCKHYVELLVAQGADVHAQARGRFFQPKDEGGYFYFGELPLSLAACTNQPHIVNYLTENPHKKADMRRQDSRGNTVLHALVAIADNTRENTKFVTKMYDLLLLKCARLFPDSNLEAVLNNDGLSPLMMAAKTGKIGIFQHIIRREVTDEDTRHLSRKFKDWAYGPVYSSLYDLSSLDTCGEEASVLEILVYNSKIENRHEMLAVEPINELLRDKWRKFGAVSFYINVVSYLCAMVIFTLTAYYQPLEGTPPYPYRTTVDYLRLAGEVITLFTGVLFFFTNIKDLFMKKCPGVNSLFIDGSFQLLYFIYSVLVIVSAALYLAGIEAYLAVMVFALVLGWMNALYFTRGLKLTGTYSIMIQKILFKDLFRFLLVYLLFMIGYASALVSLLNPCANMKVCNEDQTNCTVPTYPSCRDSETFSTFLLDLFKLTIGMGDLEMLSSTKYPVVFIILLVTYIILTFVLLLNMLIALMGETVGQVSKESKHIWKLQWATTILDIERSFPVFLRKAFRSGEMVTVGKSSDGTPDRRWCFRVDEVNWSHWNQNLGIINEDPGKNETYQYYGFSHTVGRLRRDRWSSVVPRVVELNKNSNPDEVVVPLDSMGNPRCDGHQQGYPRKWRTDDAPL
Chain of human ether-a-go-go related gene (hERG) channel (Q12809 whole entry): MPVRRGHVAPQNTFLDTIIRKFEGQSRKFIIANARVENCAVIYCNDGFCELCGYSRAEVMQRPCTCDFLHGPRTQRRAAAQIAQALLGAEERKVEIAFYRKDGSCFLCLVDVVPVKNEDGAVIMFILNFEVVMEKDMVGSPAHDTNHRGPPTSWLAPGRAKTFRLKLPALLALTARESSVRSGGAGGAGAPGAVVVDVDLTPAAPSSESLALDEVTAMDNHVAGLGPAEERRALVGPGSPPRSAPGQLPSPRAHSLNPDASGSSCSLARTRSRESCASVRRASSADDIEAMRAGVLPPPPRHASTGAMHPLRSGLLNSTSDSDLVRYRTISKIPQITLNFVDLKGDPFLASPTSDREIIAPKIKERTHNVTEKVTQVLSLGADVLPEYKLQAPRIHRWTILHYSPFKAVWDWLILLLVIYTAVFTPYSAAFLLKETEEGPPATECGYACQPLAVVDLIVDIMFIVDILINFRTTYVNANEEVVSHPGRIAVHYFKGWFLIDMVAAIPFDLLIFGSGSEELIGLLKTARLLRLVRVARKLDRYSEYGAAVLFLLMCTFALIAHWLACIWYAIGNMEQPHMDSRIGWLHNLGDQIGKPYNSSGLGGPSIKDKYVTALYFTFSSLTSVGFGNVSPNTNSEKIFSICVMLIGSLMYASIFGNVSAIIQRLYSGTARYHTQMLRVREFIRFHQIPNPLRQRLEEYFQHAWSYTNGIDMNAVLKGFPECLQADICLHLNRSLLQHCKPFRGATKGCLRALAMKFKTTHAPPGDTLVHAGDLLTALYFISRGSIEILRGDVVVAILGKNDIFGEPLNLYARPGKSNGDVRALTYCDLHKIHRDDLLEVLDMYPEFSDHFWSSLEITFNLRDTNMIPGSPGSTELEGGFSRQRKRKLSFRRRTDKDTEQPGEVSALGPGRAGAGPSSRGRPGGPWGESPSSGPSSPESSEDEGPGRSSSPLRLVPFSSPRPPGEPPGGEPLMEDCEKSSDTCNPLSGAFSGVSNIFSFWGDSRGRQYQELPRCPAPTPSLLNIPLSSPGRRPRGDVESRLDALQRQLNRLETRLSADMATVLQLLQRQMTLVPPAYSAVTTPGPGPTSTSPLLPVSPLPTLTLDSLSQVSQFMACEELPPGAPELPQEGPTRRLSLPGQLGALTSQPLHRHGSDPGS

What is called pKi is the negative decadic logarithm of the Ki, by convention in mol/L. What is called solubility is how much of the substance goes into solution per volume. A high value points to a readily soluble substance. In the case of `Cc1c(C(=O)Nc2nccs2)cc(-c2ccccc2)n1CCCN1CCOCC1` [Compound I-019], the pKi on human TRPV4 [1] is 5.83. Moreover, the “remaining rate (metabolism stability)” value in series [2] (setting [7]) came out at 89.1%. Also, the solubility at 16 h in “Solubility test” is > 50 µM.
The matching figures for `Cc1c(C(=O)Nc2cnccn2)cc(-c2ccccc2)n1CCCN1CCOCC1` [Compound I-003]: 5.51, 71.4% and > 50 µM.
A word on the pIC50: it is the negative decadic logarithm of the IC50, by convention in mol/L. A high value points to a low IC50. As to `Cc1c(C(=O)Nc2cccc(C(F)(F)F)c2)cc(C2CCNCC2)n1CCCN1CCOCC1` [Compound I-076], the “remaining rate (metabolism stability)” value in series [2] (setting [8]) was determined as 92.7%. The same molecule had a pIC50 against human TRPV4 [3] of 5.01. Also, the negative-log Ki (pKi) at human TRPV4 [3] (calculated from IC50 and 4α-PDD EC50) is 5.33. For the same molecule, the solubility at 16 h in “Solubility test” was > 50 µM.
One may read the bioavailability as the share of a dose that reaches the circulation, judged against a reference dose that is usually intravenous. A high value points to much systemic uptake. Turning to `CNCCCn1c(-c2ccccc2)cc(C(=O)Nc2cccc(C(F)(F)F)c2)c1C` [Compound I-031], on human TRPV4 [1], the negative logarithm of the Ki (pKi) is 6.80. For the same molecule, in series [2] (setting [8]), the “remaining rate (metabolism stability)” value is 92.2%. For the same molecule, the solubility at 16 h in the series “Solubility test” was > 50 µM. In series [4], this molecule had a bioavailability of 24.4%.
For `Cc1c(NC(=O)c2cccc(C(F)(F)F)c2)cc(-c2ccccc2)n1CCCN1CCOCC1` [Compound I-082], the pKi on human TRPV4 [1] was 5.84. Besides, the hERG % inhibition in series [5] was determined as 13.5%. The solubility at 16 h in “Solubility test” was > 50 µM.
`Cc1c(C(=O)Nc2cccc(C(F)(F)F)c2)cc(-c2ccccc2)n1CCCN1CCNCC1` [Compound I-014]: the pKi at human TRPV4 [1] is 6.45. Moreover, in series [2] (setting [7]), the “remaining rate (metabolism stability)” value was 66.3%. Moreover, the solubility at 16 h in “Solubility test” is > 50 µM. The molecule also displayed a bioavailability in series [4] of 15.2%.
Take `Cc1c(C(=O)Nc2cccc(C(F)(F)F)c2)cc(-c2ccccc2)n1CCSCc1c(F)cccc1Cl` [Compound I-084]: the pIC50 was 5.92 on human TRPV4 [3] and 5.80 on human TRPV4 [6].
In the case of `Cc1c(C(=O)Nc2cccc(C(F)(F)F)c2)cc(-c2ccccc2)n1CCCN` [Compound I-023], the pKi at human TRPV4 [1] is 6.22. The “remaining rate (metabolism stability)” value in series [2] (setting [8]) was 96.9%.
For the molecule `Cc1c(C(=O)Nc2cccc(C(F)(F)F)c2)cc(-c2ccccc2)n1CCCN(C)CC[C@H](O)[C@H](O)CO` [Compound I-035], the pKi at human TRPV4 [1] was 6.11. For the same molecule, in series [2] (setting [8]), the “remaining rate (metabolism stability)” value is listed as 82.2%. The solubility at 16 h in “Solubility test” was > 50 µM.
